What is called solubility (kinetic) is solubility judged after dilution from a stock solution rather than from solid.

The text below walks through data of patent US20230192717A1, “COMPOSITIONS AND METHODS OF MODULATING SHORT-CHAIN DEHYDROGENASE ACTIVITY” (RODEO THERAPEUTICS CORPORATION, priority 2020, published 2023).

One data set deals with T1, recombinant 15-PGDH (Homo sapiens, UniProt P15428).
T1 sequence (P15428 1-266): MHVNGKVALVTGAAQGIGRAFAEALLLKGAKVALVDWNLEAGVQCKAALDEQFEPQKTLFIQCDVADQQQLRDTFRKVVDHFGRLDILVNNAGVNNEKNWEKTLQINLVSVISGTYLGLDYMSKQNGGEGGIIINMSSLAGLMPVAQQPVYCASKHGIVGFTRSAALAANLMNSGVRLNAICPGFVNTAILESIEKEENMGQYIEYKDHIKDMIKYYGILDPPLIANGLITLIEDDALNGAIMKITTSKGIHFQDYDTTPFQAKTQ
Briefly: inhibition of enzymatic activity of recombinant 15-PGDH in vitro. In kind it is biochemical. Particulars: recombinant human 15-PGDH. From the text: The Recombinant 15-PGDH is human unless otherwise specified.

Data set [1] is described as follows: kinetic aqueous solubility in pH 7 citrate buffer. Particulars: kinetic from dmso stock, pH 7 citrate buffer solution, read-out: Kinetic Aq solubility (μM pH 7). In kind it is physicochemical.
A further data set addresses hERG channels (Homo sapiens, UniProt Q12809). Briefly: hERG test on manual patch-clamp system. Particulars: CHO-K1 cells expressing hERG, whole-cell patch clamp, room temperature. In kind it is cell-based. On the procedure:
Visual check for precipitation was conducted before testing.
(Block of hERG is tested as a sign of cardiac risk.)

A short description of data set [2]: in vitro microsome metabolic stability, human (HLM). The format is in vitro ADME. Particulars: pooled human liver microsomes, pH 7.4; human liver microsomes 0.5 mg/mL, 1 μM compound, NADPH, 37° C.; read-out: HLM (T1/2, min). On the procedure: (§1) Human microsome stability (HLM), mouse microsome stability (MLM), hERG IC50, Caco-2 permeability, CYP inhibition, and pharmacokinetic (PK) properties were determined on selected compounds of the disclosure.
(§2) Pooled liver microsomes (Human and CD-1 mouse) were purchased from Corning or XenoTech LLC and stored at −80° C. freezer before use. NADPH cofactor system—β-Nicotinamide adenine dinucleotide phosphate reduced form, tetrasodium salt, NADPH·4Na(NADPH) (Vendor: Chem-impex international, Cat.No. 00616) was used. Control compounds were Testosterone, Diclofenac, Propafenone.
(§3) Stock solution—Test compound was 10 mM in DMSO (Dimethyl Sulfoxide).
(§4) Working solution—Dilute 5 μL of compound or control from stock solution (10 mM) with 495 μL 100% Acetonitrile (Conc.: 100 μM, 99% ACN, 1% DMSO; final concentration in reaction system: 1 μM, 0.99% ACN, 0.01% DMSO).
(§5) Potassium Phosphate Buffer 100 mM (pH 7.4±0.1)
(§6) NADPH Cofactor: The appropriate amount of NADPH powder was weighed, and diluted into MgCl2 solution (work solution concentration: 10 mM NADPH and 10 mM MgCl2; final concentration in reaction system: 1 mM NADPH and 1 mM MgCl2).
(§7) Liver microsome preparation (0.5 mg/mL): Pipette appropriate volume of microsome (20 mg/mL) to 100 mM buffer solution (Conc.: 0.56 mg/mL, Final concentration in reaction system: 0.5 mg/mL).
(§8) Automatic Workstation was used for all liquid handling and incubation.
On the technique in general: Liver microsomes are vesicles of endoplasmic reticulum, rich in cytochrome P450 enzymes.

Data set [3] can be described thus: in vitro microsome metabolic stability, mouse (MLM). The format is in vitro ADME. To be noted: pooled CD-1 mouse liver microsomes, pH 7.4; CD-1 mouse liver microsomes 0.5 mg/mL, 1 μM compound, NADPH, 37° C.; read-out: MLM (T1/2, min). On the procedure:
as §1, §2, §3, §4, §5, §6, §7, §8

A further data set in a line: Caco-2 permeability test. In kind it is in vitro ADME. Particulars: human, pH 7.4, Caco-2, 2.0 μM, A to B and B to A, pH 7.40, read-out: Caco summary: ER (efflux ratio). (Caco-2 monolayers are a common model of the intestinal barrier.)
For a further data set, the system named is Caco-2 Cells. Briefly: Caco-2 permeability test. To be noted: Caco-2, 2.0 μM, 2 hours, pH 7.40. In kind it is in vitro ADME.
Another data set concerns the target T2, CYP 1A2 (Homo sapiens, UniProt P05177).
T2 construct: pooled human liver microsomes (Corning, Xenotech, or other qualified vendors; pooled from multiple donors); tissue Corning, Xenotech, or other qualified vendors; host or cells: pooled human liver microsomes
T2 sequence (P05177 1-516): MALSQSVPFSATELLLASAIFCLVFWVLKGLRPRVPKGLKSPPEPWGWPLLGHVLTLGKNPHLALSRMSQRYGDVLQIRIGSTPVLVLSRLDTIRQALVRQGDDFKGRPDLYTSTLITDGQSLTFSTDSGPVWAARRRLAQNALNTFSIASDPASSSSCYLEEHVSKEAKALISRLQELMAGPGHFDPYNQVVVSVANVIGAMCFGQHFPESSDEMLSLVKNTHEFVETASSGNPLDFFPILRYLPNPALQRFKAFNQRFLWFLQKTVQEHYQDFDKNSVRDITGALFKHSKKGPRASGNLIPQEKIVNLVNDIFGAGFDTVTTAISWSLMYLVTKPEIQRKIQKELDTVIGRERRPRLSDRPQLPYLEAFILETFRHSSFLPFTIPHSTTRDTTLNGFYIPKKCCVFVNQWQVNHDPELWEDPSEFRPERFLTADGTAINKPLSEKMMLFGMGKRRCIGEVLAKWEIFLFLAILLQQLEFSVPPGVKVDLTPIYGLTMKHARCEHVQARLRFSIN
Kind of data set: microsomal CYP inhibition, 1A2. In kind it is in vitro ADME. Particulars: human liver microsomes 0.2 mg/ml, substrate Phenacetin. On the procedure:
(§9) CYP450 enzymatic activities was determined using 5in1 marker substrate cocktail. For each reaction, enzyme activities in the presence of the test compound at 8 concentrations (0, 0.05, 0.15, 0.5, 1.5, 5.0, 15.0, or 50.0 μM) were measured in singlet (n=1). A known inhibitor for each isoform, tested at a single concentration (3.0 μM) in duplicate (n=2), was included as positive control. Incubation mixture containing pooled human liver microsomes (Corning, Xenotech, or other qualified vendors; pooled from multiple donors) at 0.2 mg/ml, marker substrates and standard inhibitors (listed in the following table) or the test compound was warm up at 37° C. for 10 minutes. The reactions were initiated by the addition of the NADPH (1.0 mM). […] After the mixture was incubated at 37° C. for 10 minutes, ice cold acetonitrile containing the internal standard (IS) was added to terminate the reactions. The metabolites generated from the marker substrates were measured by LC-MS/MS and were assessed based on peak area ratios of the analyte to IS. The remaining activity (expressed as % of control activity) were calculated; IC50 values of the test compound were determined using SigmaPlot or XLfit with 3- or 4-parameter logistic sigmoidal equation.

In a further data set the target is T3, CYP 2C9 (Homo sapiens, UniProt P11712).
T3 construct: pooled human liver microsomes (Corning, Xenotech, or other qualified vendors; pooled from multiple donors); tissue Corning, Xenotech, or other qualified vendors; host or cells: pooled human liver microsomes
T3 sequence (P11712 whole entry): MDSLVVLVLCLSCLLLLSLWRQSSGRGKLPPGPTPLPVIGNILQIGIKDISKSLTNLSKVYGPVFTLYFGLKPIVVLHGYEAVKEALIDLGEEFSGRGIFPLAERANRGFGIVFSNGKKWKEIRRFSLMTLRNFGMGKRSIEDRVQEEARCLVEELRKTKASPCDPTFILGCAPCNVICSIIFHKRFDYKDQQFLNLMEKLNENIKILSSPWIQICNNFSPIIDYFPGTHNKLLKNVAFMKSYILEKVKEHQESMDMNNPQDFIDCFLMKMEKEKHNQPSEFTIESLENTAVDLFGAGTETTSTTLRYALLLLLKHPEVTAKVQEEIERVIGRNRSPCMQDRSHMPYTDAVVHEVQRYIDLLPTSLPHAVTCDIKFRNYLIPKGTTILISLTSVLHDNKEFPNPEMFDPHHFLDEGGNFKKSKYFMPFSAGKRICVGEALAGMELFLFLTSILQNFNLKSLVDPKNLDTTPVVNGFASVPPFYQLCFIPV
Kind of data set: microsomal CYP inhibition, 2C9. In kind it is in vitro ADME. Particulars: human liver microsomes 0.2 mg/ml, substrate Diclofenac. On the procedure:
as §9

The target in a further data set is T4, CYP 2C19 (Homo sapiens, UniProt P33261).
T4 construct: pooled human liver microsomes (Corning, Xenotech, or other qualified vendors; pooled from multiple donors); tissue Corning, Xenotech, or other qualified vendors; host or cells: pooled human liver microsomes
T4 sequence (P33261 whole entry): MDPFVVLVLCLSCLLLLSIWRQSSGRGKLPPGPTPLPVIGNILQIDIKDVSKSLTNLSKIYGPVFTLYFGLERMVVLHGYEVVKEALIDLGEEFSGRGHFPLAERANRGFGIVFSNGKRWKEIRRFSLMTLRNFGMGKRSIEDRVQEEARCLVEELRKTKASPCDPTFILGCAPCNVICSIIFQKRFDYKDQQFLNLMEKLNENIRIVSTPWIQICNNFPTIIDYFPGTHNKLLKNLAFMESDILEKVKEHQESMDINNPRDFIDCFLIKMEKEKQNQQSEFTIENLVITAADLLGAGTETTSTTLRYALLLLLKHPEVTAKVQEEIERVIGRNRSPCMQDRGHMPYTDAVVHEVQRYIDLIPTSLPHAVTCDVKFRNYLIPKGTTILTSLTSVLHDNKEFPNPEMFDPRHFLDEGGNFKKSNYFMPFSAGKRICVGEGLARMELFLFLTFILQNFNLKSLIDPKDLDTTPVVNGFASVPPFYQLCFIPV
Kind of data set: microsomal CYP inhibition, 2C19. To be noted: human liver microsomes 0.2 mg/ml, substrate S-Mephenytoin. In kind it is in vitro ADME. Here is the method:
as §9

The target of a further data set is T5, CYP 2D6 (Homo sapiens, UniProt P10635).
T5 construct: pooled human liver microsomes (Corning, Xenotech, or other qualified vendors; pooled from multiple donors); tissue Corning, Xenotech, or other qualified vendors; host or cells: pooled human liver microsomes
T5 sequence (P10635 whole entry): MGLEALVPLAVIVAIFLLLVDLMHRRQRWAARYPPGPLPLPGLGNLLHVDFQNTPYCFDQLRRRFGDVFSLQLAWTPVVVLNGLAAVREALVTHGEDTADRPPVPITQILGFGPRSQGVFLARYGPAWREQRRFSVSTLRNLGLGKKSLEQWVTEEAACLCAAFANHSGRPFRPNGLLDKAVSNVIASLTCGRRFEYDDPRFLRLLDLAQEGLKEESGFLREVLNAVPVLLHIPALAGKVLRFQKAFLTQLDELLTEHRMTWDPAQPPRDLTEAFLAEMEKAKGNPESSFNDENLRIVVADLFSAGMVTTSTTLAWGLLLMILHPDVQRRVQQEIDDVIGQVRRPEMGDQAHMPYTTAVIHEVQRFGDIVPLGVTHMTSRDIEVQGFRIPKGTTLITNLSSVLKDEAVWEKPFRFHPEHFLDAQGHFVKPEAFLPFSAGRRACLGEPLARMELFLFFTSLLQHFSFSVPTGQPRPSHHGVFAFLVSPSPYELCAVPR
Briefly: microsomal CYP inhibition, 2D6. In kind it is in vitro ADME. To be noted: human liver microsomes 0.2 mg/ml, substrate Dextromethorphan. On the procedure:
as §9

A further data set addresses T6, CYP 3A4 (Homo sapiens, UniProt P08684).
T6 construct: pooled human liver microsomes (Corning, Xenotech, or other qualified vendors; pooled from multiple donors); tissue Corning, Xenotech, or other qualified vendors; host or cells: pooled human liver microsomes
Kind of data set: microsomal CYP inhibition, 3A4. The format is in vitro ADME. To be noted: human liver microsomes 0.2 mg/ml, substrate Midazolam; read-out: CYP inhibition (μM) 3A4 (3A4M). On the procedure: as §9

≈ marks a conversion by molar mass, not a printed value.

Sequence of hERG channels (Q12809 whole entry): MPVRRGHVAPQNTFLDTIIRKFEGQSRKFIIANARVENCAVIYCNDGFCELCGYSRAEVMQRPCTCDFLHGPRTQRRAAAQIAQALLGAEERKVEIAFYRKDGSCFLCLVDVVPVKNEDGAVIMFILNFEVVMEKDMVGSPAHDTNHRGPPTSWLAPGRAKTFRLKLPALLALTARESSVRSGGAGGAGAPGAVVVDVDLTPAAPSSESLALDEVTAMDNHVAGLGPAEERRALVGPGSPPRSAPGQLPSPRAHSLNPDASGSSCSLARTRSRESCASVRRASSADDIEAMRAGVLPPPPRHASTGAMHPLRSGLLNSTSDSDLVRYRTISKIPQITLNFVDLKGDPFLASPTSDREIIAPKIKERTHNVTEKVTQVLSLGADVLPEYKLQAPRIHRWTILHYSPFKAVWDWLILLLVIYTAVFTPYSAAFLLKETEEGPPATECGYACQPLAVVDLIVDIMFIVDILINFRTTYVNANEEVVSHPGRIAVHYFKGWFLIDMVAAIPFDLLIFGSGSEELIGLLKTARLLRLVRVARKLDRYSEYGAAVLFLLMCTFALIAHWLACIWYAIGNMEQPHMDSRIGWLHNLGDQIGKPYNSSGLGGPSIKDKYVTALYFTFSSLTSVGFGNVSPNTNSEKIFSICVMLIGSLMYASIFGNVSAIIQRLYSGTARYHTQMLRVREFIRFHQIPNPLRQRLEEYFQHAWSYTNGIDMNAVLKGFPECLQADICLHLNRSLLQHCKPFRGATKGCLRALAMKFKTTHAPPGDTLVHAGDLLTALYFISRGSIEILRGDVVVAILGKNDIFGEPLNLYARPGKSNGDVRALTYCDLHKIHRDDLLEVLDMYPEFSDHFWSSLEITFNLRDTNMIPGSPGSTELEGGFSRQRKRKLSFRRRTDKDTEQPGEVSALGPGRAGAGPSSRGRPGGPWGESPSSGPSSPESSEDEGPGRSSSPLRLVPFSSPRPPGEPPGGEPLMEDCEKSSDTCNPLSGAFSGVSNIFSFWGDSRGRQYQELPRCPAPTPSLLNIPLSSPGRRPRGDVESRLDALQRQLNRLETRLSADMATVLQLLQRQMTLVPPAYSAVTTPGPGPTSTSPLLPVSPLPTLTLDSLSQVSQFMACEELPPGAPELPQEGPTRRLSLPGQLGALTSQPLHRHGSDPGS
T6 sequence (P08684 whole entry): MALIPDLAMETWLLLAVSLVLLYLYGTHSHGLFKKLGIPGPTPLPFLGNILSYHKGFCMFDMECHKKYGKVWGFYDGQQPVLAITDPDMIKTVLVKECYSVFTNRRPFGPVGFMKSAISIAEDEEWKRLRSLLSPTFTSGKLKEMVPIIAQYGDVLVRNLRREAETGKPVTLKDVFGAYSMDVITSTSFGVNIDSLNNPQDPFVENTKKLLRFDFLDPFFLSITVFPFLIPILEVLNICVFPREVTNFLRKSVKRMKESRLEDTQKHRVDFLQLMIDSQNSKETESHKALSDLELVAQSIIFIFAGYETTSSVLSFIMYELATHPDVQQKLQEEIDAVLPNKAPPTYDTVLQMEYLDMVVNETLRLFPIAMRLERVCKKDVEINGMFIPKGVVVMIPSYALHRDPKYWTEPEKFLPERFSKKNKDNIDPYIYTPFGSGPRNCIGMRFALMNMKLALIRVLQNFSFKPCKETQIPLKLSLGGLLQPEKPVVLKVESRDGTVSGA
Description for Caco-2 Cells: Caco-2 Cells (obtained from ATCC) were seeded onto PET membranes of 96-well Insert Plates and cultured for 21-28 days before being used in the transport assays. The integrity of the monolayer was verified by performing Lucifer yellow rejection assay. The quality of the monolayer was verified by measuring the unidirectional (A to B) permeability of nadolol (low permeability marker), metoprolol (high permeability marker) and bi-directional permeability of digoxin (a P-glycoprotein substrate marker) in duplicate wells. Nadolol and metoprolol were tested at 2.0 μM, and digoxin was tested at 10.0 μM. […]
Dosing solutions were removed and mixed with transport buffer and Stop Solution containing an appropriate internal standard (IS) as T0 samples. […] All samples including T0 samples, donor samples and receiver samples were analyzed using LC/MS/MS. Concentrations of test compounds were expressed as peak area ratio of analytes to IS without a standard curve.
The A to B and B to A apparent permeability coefficients (Papp), % Solution Recovery, and Efflux ratio (ER) were determined.

For the compound `COCC[S@@+]([O-])c1sc2nc(-c3cnc4nn(C)cc4c3)c(C#N)c(-c3ccccc3)c2c1N` [Compound 9, (R)-3-amino-2-((2-methoxyethyl)sulfinyl)-6-(2-methyl-2H-pyrazolo[3,4-b]pyridin-5-yl)-4-phenylthieno[2,3-b]pyridine-5-carbonitrile], the IC50 at recombinant 15-PGDH is less than 0.0025 µM; at hERG channels it was 13 µM. Moreover, the solubility (kinetic) in [1] is 169 µM (≈ 82.6 µg/mL).

In the case of `COCC[S@@+]([O-])c1sc2nc(-c3cnc4nn(C)nc4c3)cc(C(C)(C)C)c2c1N` [Compound 29, 4-tert-butyl-2-[(R)-2-methoxyethanesulfinyl]-6-{2-methyl-2H-[1,2,3]triazolo[4,5-b]pyridin-6-yl}thieno[2,3-b]pyridin-3-amine], the IC50 at recombinant 15-PGDH is less than 0.0025 µM; at hERG channels, 11 µM; against CYP 1A2 it was greater than 50 µM; against CYP 2C9, 4 µM; on CYP 2C19, 1 µM; against CYP 2D6, 29 µM. In addition, at CYP 3A4, the IC50 stood at 39 µM. Besides, in data set [1], the solubility (kinetic) is 188 µM (≈ 83.6 µg/mL). Also, the half-life at 1 μM in data set [2] was determined as 100 min; in data set [3], 86 min. In addition, the efflux ratio at 2 h, 2 μM in the data set “Caco-2 permeability test” was determined as 1. Moreover, in the data set on Caco-2 Cells, the “Caco summary: permeability (high/low)” value is “high”.

With `COCC[S@@+]([O-])c1sc2nc(-c3cc(=O)n(C)cn3)cc(-c3ccccc3)c2c1N` [Compound A, reference compound], at recombinant 15-PGDH, the IC50 was less than 0.0025 µM. The kinetic solubility in data set [1] stood at 64 µM (≈ 28.2 µg/mL).
